Laboratory results taken from patent US10376520B2, “Methods for the treatment of cardiovascular disorders” (Galapagos NV, priority 2015, dated 2019).

Tested on: RA patients
Assay: LDL determination, Study 1 (RA patients, add-on to MTX)
Format: in vivo, human
Method: Double-blind, placebo-controlled add on study in subjects with moderately to severely active RA who have an inadequate response to methotrexate (MTX) (oral or parenteral).
595 subjects randomized to one of 6 dose regimens of Compound 1 (dosed as a [Compound 1:HCl:3H2O]) (3 dose levels administered either once or twice daily) or placebo on top of each subject's stable dose of MTX.
Compound 1 (dosed as a [Compound 1:HCl:3H2O]) is dosed for twelve weeks once daily (q.d.) (50 mg, 100 mg or 200 mg) or twice daily (b.i.d.) (25 mg, 50 mg or 100 mg); or placebo.
At Week 12, the subjects on placebo who have not achieved 20% improvement in swollen joint count (SJC66) and tender joint count (TJC68) are re-randomized automatically to receive Compound 1 (dosed as a [Compound 1:HCl:3H2O]) either at 100 mg q.d. or 50 mg b.i.d. doses in a blinded fashion; subjects on 50 mg q.d. who have not achieved 20% improvement in SJC66 and TJC68 will be assigned to 100 mg q.d. and subjects on 25 mg b.i.d. that have not achieved a 20% improvement in SJC66 and TJC68 will be assigned to 50 mg b.i.d. Subjects who switch treatment at week 12 are handled as if they discontinued at week 12 for the purpose of statistical analysis, whereas subjects in the other groups will maintain their randomized treatment until Week 24.
The determination of [LDL]-cholesterol is made using an automated method taking advantage of the selective micellary solubilization of [LDL]-cholesterol by a nonionic detergent and the interaction of a sugar compound and lipoproteins (VLDL and chylomicrons).
When a detergent is included in the enzymatic method for cholesterol determination (cholesterol esterase, cholesterol oxidase coupling reaction), the relative reactivities of cholesterol in the lipoprotein fractions increase in this order: [HDL]<chylomicrons <VLDL <[LDL]. In the presence of Mg^2+, a sugar compound markedly reduces the enzymatic reaction of the cholesterol measurement in VLDL and chylomicrons. The combination of a sugar compound with detergent enables the selective determination of [LDL]-cholesterol in serum. (Friedewald et al., 1972; Rifai et al., 1992)
Homogeneous enzymatic colorimetric assay.
In the presence of peroxidase, the hydrogen peroxide generated reacts with 4-aminoantipyrine and Sodium N-(2-hydroxy-3-sulfopropyl)-3,5-dimethoxyaniline (HSDA) to form a purple-blue dye.
The color intensity of this dye is directly proportional to the cholesterol concentration and is measured photometrically.
Human serum and plasma samples [LDL] determination was done on a Roche/Hitachi Cobas c 701/702 system which automatically calculate the analyte concentration of each sample. Samples containing precipitates are centrifuged before performing the assay.

[1] = Study 1 12 weeks results, 200 mg q.d., week 2
[2] = Study 1 12 weeks results, 200 mg q.d., week 4
[3] = Study 1 12 weeks results, 200 mg q.d., week 8
[4] = Study 1 12 weeks results, 200 mg q.d., week 12
[5] = Study 1 12 weeks results, 2 x 25 mg b.i.d., week 1
[6] = Study 1 12 weeks results, 2 x 25 mg b.i.d., week 2
[7] = Study 1 12 weeks results, 2 x 25 mg b.i.d., week 4
[8] = Study 1 12 weeks results, 2 x 25 mg b.i.d., week 8
[9] = Study 1 12 weeks results, 2 x 25 mg b.i.d., week 12
[10] = Study 1 12 weeks results, 2 x 50 mg b.i.d., week 1
[11] = Study 1 12 weeks results, 2 x 50 mg b.i.d., week 2
[12] = Study 1 12 weeks results, 2 x 50 mg b.i.d., week 4
[13] = Study 1 12 weeks results, 2 x 50 mg b.i.d., week 8
[14] = Study 1 12 weeks results, 2 x 50 mg b.i.d., week 12
[15] = Study 1 12 weeks results, 2 x 100 mg b.i.d., week 1
[16] = Study 1 12 weeks results, 2 x 100 mg b.i.d., week 2
[17] = Study 1 12 weeks results, 2 x 100 mg b.i.d., week 4
[18] = Study 1 12 weeks results, 2 x 100 mg b.i.d., week 8
[19] = Study 1 12 weeks results, 2 x 100 mg b.i.d., week 12
[20] = Study 1 24 weeks results, continued 50 mg q.d., week 1
[21] = Study 1 24 weeks results, continued 50 mg q.d., week 2
[22] = Study 1 24 weeks results, continued 50 mg q.d., week 4
[23] = Study 1 24 weeks results, continued 50 mg q.d., week 8
[24] = Study 1 24 weeks results, continued 50 mg q.d., week 12
[25] = Study 1 24 weeks results, continued 50 mg q.d., week 16
[26] = Study 1 24 weeks results, continued 50 mg q.d., week 20
[27] = Study 1 24 weeks results, continued 50 mg q.d., week 24
[28] = Study 1 24 weeks results, continued 100 mg q.d., week 1
[29] = Study 1 24 weeks results, continued 100 mg q.d., week 2
[30] = Study 1 24 weeks results, continued 100 mg q.d., week 4
[31] = Study 1 24 weeks results, continued 100 mg q.d., week 8
[32] = Study 1 24 weeks results, continued 100 mg q.d., week 12
[33] = Study 1 24 weeks results, continued 100 mg q.d., week 16
[34] = Study 1 24 weeks results, continued 100 mg q.d., week 20
[35] = Study 1 24 weeks results, continued 100 mg q.d., week 24
[36] = Study 1 24 weeks results, continued 200 mg q.d., week 24
[37] = Study 1 24 weeks results, placebo switched to 50 mg b.i.d at week 12, week 16
[38] = Study 1 24 weeks results, placebo switched to 50 mg b.i.d at week 12, week 20
[39] = Study 1 24 weeks results, placebo switched to 50 mg b.i.d at week 12, week 24

SMILES: O=C(Nc1nc2cccc(-c3ccc(CN4CCS(=O)(=O)CC4)cc3)n2n1)C1CC1 [Compound 1, cyclopropanecarboxylic acid {5-[4-(1,1-dioxo-thiomorpholin-4-ylmethyl)-phenyl]-[1,2,4]triazolo[1,5-a]pyridin-2yl}-amide]
- [LDL] Mean CFB [1]: 0.11 mmol/L
- [LDL] Median CFB [1]: 0.13 mmol/L
- [LDL] Mean CFB [2]: 0.13 mmol/L
- [LDL] Median CFB [2]: 0.09 mmol/L
- [LDL] Mean CFB [3]: 0.16 mmol/L
- [LDL] Median CFB [3]: 0.18 mmol/L
- [LDL] Mean CFB [4]: 0.19 mmol/L
- [LDL] Median CFB [4]: 0.14 mmol/L
- [LDL] Mean CFB [5]: 0.04 mmol/L
- [LDL] Median CFB [5]: 0.05 mmol/L
- [LDL] Mean CFB [6]: 0.04 mmol/L
- [LDL] Median CFB [6]: 0.09 mmol/L
- [LDL] Mean CFB [7]: -0.01 mmol/L
- [LDL] Median CFB [7]: -0.01 mmol/L
- [LDL] Mean CFB [8]: -0.05 mmol/L
- [LDL] Median CFB [8]: 0.01 mmol/L
- [LDL] Mean CFB [9]: 0.07 mmol/L
- [LDL] Median CFB [9]: 0.05 mmol/L
- [LDL] Mean CFB [10]: 0.10 mmol/L
- [LDL] Median CFB [10]: 0.17 mmol/L
- [LDL] Mean CFB [11]: 0.04 mmol/L
- [LDL] Median CFB [11]: 0.1 mmol/L
- [LDL] Mean CFB [12]: 0.14 mmol/L
- [LDL] Median CFB [12]: 0.05 mmol/L
- [LDL] Mean CFB [13]: 0.07 mmol/L
- [LDL] Median CFB [13]: 0.10 mmol/L
- [LDL] Mean CFB [14]: 0.05 mmol/L
- [LDL] Median CFB [14]: 0.02 mmol/L
- [LDL] Mean CFB [15]: 0.20 mmol/L
- [LDL] Median CFB [15]: 0.18 mmol/L
- [LDL] Mean CFB [16]: 0.15 mmol/L
- [LDL] Median CFB [16]: 0.08 mmol/L
- [LDL] Mean CFB [17]: 0.17 mmol/L
- [LDL] Median CFB [17]: 0.12 mmol/L
- [LDL] Mean CFB [18]: 0.31 mmol/L
- [LDL] Median CFB [18]: 0.22 mmol/L
- [LDL] Mean CFB [19]: 0.27 mmol/L
- [LDL] Median CFB [19]: 0.26 mmol/L
- [LDL] Mean CFB [20]: 0.00 mmol/L
- [LDL] Median CFB [20]: -0.01 mmol/L
- [LDL] Mean CFB [21]: -0.02 mmol/L
- [LDL] Median CFB [21]: 0.02 mmol/L
- [LDL] Mean CFB [22]: 0.02 mmol/L
- [LDL] Median CFB [22]: -0.01 mmol/L
- [LDL] Mean CFB [23]: 0.08 mmol/L
- [LDL] Median CFB [23]: 0.13 mmol/L
- [LDL] Mean CFB [24]: 0.16 mmol/L
- [LDL] Median CFB [24]: 0.14 mmol/L
- [LDL] Mean CFB [25]: 0.15 mmol/L
- [LDL] Median CFB [25]: 0.12 mmol/L
- [LDL] Mean CFB [26]: 0.14 mmol/L
- [LDL] Median CFB [26]: 0.20 mmol/L
- [LDL] Mean CFB [27]: 0.13 mmol/L
- [LDL] Median CFB [27]: 0.14 mmol/L
- [LDL] Mean CFB [28]: 0.11 mmol/L
- [LDL] Median CFB [28]: 0.10 mmol/L
- [LDL] Mean CFB [29]: 0.01 mmol/L
- [LDL] Median CFB [29]: 0.02 mmol/L
- [LDL] Mean CFB [30]: 0.13 mmol/L
- [LDL] Median CFB [30]: 0.13 mmol/L
- [LDL] Mean CFB [31]: 0.03 mmol/L
- [LDL] Median CFB [31]: 0.04 mmol/L
- [LDL] Mean CFB [32]: 0.12 mmol/L
- [LDL] Median CFB [32]: 0.13 mmol/L
- [LDL] Mean CFB [33]: -0.01 mmol/L
- [LDL] Median CFB [33]: 0.03 mmol/L
- [LDL] Mean CFB [34]: -0.01 mmol/L
- [LDL] Median CFB [34]: 0.02 mmol/L
- [LDL] Mean CFB [35]: 0.03 mmol/L
- [LDL] Median CFB [35]: 0.03 mmol/L
- [LDL] Mean CFB [36]: 0.13 mmol/L
- [LDL] Median CFB [36]: 0.17 mmol/L
- [LDL] Mean CFB [37]: 0.07 mmol/L
- [LDL] Median CFB [37]: 0.16 mmol/L
- [LDL] Mean CFB [38]: 0.13 mmol/L
- [LDL] Median CFB [38]: 0.06 mmol/L
- [LDL] Mean CFB [39]: -0.01 mmol/L
- [LDL] Median CFB [39]: 0.22 mmol/L
- [LDL] Mean percentage CFB - 24 weeks results (increased from 25 mg b.i.d. to 50 mg b.i.d at 12 weeks, week 1): 2.10%
- [LDL] Mean percentage CFB - 24 weeks results (increased from 25 mg b.i.d. to 50 mg b.i.d at 12 weeks, week 2): 4.27%
- [LDL] Mean percentage CFB - 24 weeks results (increased from 25 mg b.i.d. to 50 mg b.i.d at 12 weeks, week 4): −3.29%
- [LDL] Mean percentage CFB - 24 weeks results (increased from 25 mg b.i.d. to 50 mg b.i.d at 12 weeks, week 8): −5.79%
- [LDL] Mean percentage CFB - 24 weeks results (increased from 25 mg b.i.d. to 50 mg b.i.d at 12 weeks, week 12): −0.19%
- [LDL] Mean percentage CFB - 24 weeks results (increased from 25 mg b.i.d. to 50 mg b.i.d at 12 weeks, week 16): 3.55%
- [LDL] Mean percentage CFB - 24 weeks results (increased from 25 mg b.i.d. to 50 mg b.i.d at 12 weeks, week 20): −8.82%
- [LDL] Mean percentage CFB - 24 weeks results (increased from 25 mg b.i.d. to 50 mg b.i.d at 12 weeks, week 24): 2.65%
- [LDL] Mean percentage CFB - 24 weeks results (increased from 50 mg q.d. to 100 mg q.d. at 12 weeks, week 1): 0.31%
- [LDL] Mean percentage CFB - 24 weeks results (increased from 50 mg q.d. to 100 mg q.d. at 12 weeks, week 2): 4.52%
- [LDL] Mean percentage CFB - 24 weeks results (increased from 50 mg q.d. to 100 mg q.d. at 12 weeks, week 4): −1.68%
- [LDL] Mean percentage CFB - 24 weeks results (increased from 50 mg q.d. to 100 mg q.d. at 12 weeks, week 8): 1.20%
- [LDL] Mean percentage CFB - 24 weeks results (increased from 50 mg q.d. to 100 mg q.d. at 12 weeks, week 12): 2.96%
- [LDL] Mean percentage CFB - 24 weeks results (increased from 50 mg q.d. to 100 mg q.d. at 12 weeks, week 16): 4.69%
- [LDL] Mean percentage CFB - 24 weeks results (increased from 50 mg q.d. to 100 mg q.d. at 12 weeks, week 20): 3.51%
- [LDL] Mean percentage CFB - 24 weeks results (increased from 50 mg q.d. to 100 mg q.d. at 12 weeks, week 24): 4.92%
- [LDL] Mean percentage CFB - 24 weeks results (placebo switched to 50 mg b.i.d at week 12, week 16): 4.13%
- [LDL] Mean percentage CFB - 24 weeks results (placebo switched to 50 mg b.i.d at week 12, week 20): 6.69%
- [LDL] Mean percentage CFB - 24 weeks results (placebo switched to 50 mg b.i.d at week 12, week 24): 2.68%
- [LDL] Mean percentage CFB - 24 weeks results (placebo switched to 100 mg q.d. at week 12, week 16): −2.85%
- [LDL] Mean percentage CFB - 24 weeks results (placebo switched to 100 mg q.d. at week 12, week 20): −1.07%
- [LDL] Mean percentage CFB - 24 weeks results (placebo switched to 100 mg q.d. at week 12, week 24): −8.19%
